Laboratory results published in paper PMC9481151, “Discovery of new symmetrical and asymmetrical nitrile-containing 1,4-dihydropyridine derivatives as dual kinases and P-glycoprotein inhibitors: synthesis, in vitro assays, and in silico studies” (Journal of Enzyme Inhibition and Medicinal Chemistry, 2022).

What was measured:
[1] = system: Staphylococcus aureus; test: Agar well diffusion method
[2] = system: SN12C; test: NCI single dose (10 µM) SRB screen; format: cell-based, human; conditions: renal cancer, 48 h
[3] = system: HS578T; test: NCI single dose (10 µM) SRB screen; format: cell-based, human; conditions: breast cancer, 48 h
[4] = system: SF-268; test: NCI single dose (10 µM) SRB screen; format: cell-based, human; conditions: CNS cancer, 48 h
[5] = system: HOP-92; test: NCI single dose (10 µM) SRB screen; format: cell-based, human; conditions: non-small cell lung cancer, 48 h
[6] = system: OVCAR-5; test: NCI single dose (10 µM) SRB screen; format: cell-based, human; conditions: ovarian cancer, 48 h
[7] = system: OVCAR-8; test: NCI single dose (10 µM) SRB screen; format: cell-based, human; conditions: ovarian cancer, 48 h
[8] = system: HL-60(TB); test: NCI single dose (10 µM) SRB screen; format: cell-based, human; conditions: leukaemia, 48 h
[9] = system: NCI 60 cancer cell lines; test: NCI single dose (10 µM) SRB screen, mean over panel; format: cell-based, human; conditions: mean over 60 cell lines, 48 h
[10] = system: CAKI-1; test: NCI single dose (10 µM) SRB screen; format: cell-based, human; conditions: renal cancer, 48 h
[11] = system: SK-OV-3; test: NCI single dose (10 µM) SRB screen; format: cell-based, human; conditions: ovarian cancer, 48 h
[12] = system: TK-10; test: NCI single dose (10 µM) SRB screen; format: cell-based, human; conditions: renal cancer, 48 h
[13] = system: A498; test: NCI single dose (10 µM) SRB screen; format: cell-based, human; conditions: renal cancer, 48 h
[14] = system: MOLT-4; test: NCI single dose (10 µM) SRB screen; format: cell-based, human; conditions: leukaemia, 48 h
[15] = system: NCI-H23; test: NCI single dose (10 µM) SRB screen; format: cell-based, human; conditions: non-small cell lung cancer, 48 h
[16] = system: RPMI-8226; test: NCI single dose (10 µM) SRB screen; format: cell-based, human; conditions: leukaemia, 48 h
[17] = system: SK-MEL-2; test: NCI single dose (10 µM) SRB screen; format: cell-based, human; conditions: melanoma, 48 h
[18] = system: RXF 393; test: NCI single dose (10 µM) SRB screen; format: cell-based, human; conditions: renal cancer, 48 h
[19] = system: MALME-3M; test: NCI single dose (10 µM) SRB screen; format: cell-based, human; conditions: melanoma, 48 h
[20] = system: A549/ATCC; test: NCI single dose (10 µM) SRB screen; format: cell-based, human; conditions: non-small cell lung cancer, 48 h
[21] = system: NCI-H460; test: NCI single dose (10 µM) SRB screen; format: cell-based, human; conditions: non-small cell lung cancer, 48 h
[22] = system: K-562; test: NCI single dose (10 µM) SRB screen; format: cell-based, human; conditions: leukaemia, 48 h
[23] = system: HCT-15; test: NCI single dose (10 µM) SRB screen; format: cell-based, human; conditions: colon cancer, 48 h
[24] = system: HCT-116; test: NCI single dose (10 µM) SRB screen; format: cell-based, human; conditions: colon cancer, 48 h
[25] = system: SF-539; test: NCI single dose (10 µM) SRB screen; format: cell-based, human; conditions: CNS cancer, 48 h
[26] = system: MDA-MB-435; test: NCI single dose (10 µM) SRB screen; format: cell-based, human; conditions: melanoma, 48 h
[27] = system: OVCAR-4; test: NCI single dose (10 µM) SRB screen; format: cell-based, human; conditions: ovarian cancer, 48 h
[28] = system: UO-31; test: NCI single dose (10 µM) SRB screen; format: cell-based, human; conditions: renal cancer, 48 h
[29] = system: IGROV1; test: NCI single dose (10 µM) SRB screen; format: cell-based, human; conditions: ovarian cancer, 48 h
[30] = system: HCC-2998; test: NCI single dose (10 µM) SRB screen; format: cell-based, human; conditions: colon cancer, 48 h
[31] = system: M14; test: NCI single dose (10 µM) SRB screen; format: cell-based, human; conditions: melanoma, 48 h
[32] = system: SNB-75; test: NCI single dose (10 µM) SRB screen; format: cell-based, human; conditions: CNS cancer, 48 h
[33] = system: ACHN; test: NCI single dose (10 µM) SRB screen; format: cell-based, human; conditions: renal cancer, 48 h
[34] = system: SNB-19; test: NCI single dose (10 µM) SRB screen; format: cell-based, human; conditions: CNS cancer, 48 h
[35] = system: PC-3; test: NCI single dose (10 µM) SRB screen; format: cell-based, human; conditions: prostate cancer, 48 h
[36] = system: NCI/ADR-RES; test: NCI single dose (10 µM) SRB screen; format: cell-based, human; conditions: ovarian cancer, 48 h
[37] = system: UACC-257; test: NCI single dose (10 µM) SRB screen; format: cell-based, human; conditions: melanoma, 48 h
[38] = system: Aspergillus flavus; test: Agar well diffusion method
[39] = system: BT-549; test: NCI single dose (10 µM) SRB screen; format: cell-based, human; conditions: breast cancer, 48 h
[40] = system: EKVX; test: NCI single dose (10 µM) SRB screen; format: cell-based, human; conditions: non-small cell lung cancer, 48 h
[41] = system: 786-0; test: NCI single dose (10 µM) SRB screen; format: cell-based, human; conditions: renal cancer, 48 h
[42] = system: COLO 205; test: NCI single dose (10 µM) SRB screen; format: cell-based, human; conditions: colon cancer, 48 h
[43] = system: T-47D; test: NCI single dose (10 µM) SRB screen; format: cell-based, human; conditions: breast cancer, 48 h
[44] = system: LOX IMVI; test: NCI single dose (10 µM) SRB screen; format: cell-based, human; conditions: melanoma, 48 h
[45] = system: MDA-MB-231; test: NCI single dose (10 µM) SRB screen; format: cell-based, human; conditions: breast cancer, 48 h
[46] = system: MDA-MB-468; test: NCI single dose (10 µM) SRB screen; format: cell-based, human; conditions: breast cancer, 48 h
[47] = system: NCI-H322M; test: NCI single dose (10 µM) SRB screen; format: cell-based; conditions: non-small cell lung cancer, 48 h
[48] = system: OVCAR-3; test: NCI single dose (10 µM) SRB screen; format: cell-based, human; conditions: ovarian cancer, 48 h
[49] = system: HT29; test: NCI single dose (10 µM) SRB screen; format: cell-based, human; conditions: colon cancer, 48 h
[50] = system: U251; test: NCI single dose (10 µM) SRB screen; format: cell-based, human; conditions: CNS cancer, 48 h
[51] = system: SF-295; test: NCI single dose (10 µM) SRB screen; format: cell-based, human; conditions: CNS cancer, 48 h
[52] = system: Candida albicans; test: Agar well diffusion method; conditions: relative to clotrimazole
[53] = system: CCRF-CEM; test: NCI single dose (10 µM) SRB screen; format: cell-based, human; conditions: leukaemia, 48 h

COC(=O)C1=C(C)NC(C)=C(C(=O)OCc2ccccc2)C1c1cccc(C#N)c1 (racemic) [Compound 2e, (±)-3-Benzyl 5-methyl 4-(3-cyanophenyl)-2,6-dimethyl-1,4-dihydropyridine-3,5-dicarboxylate]
zone of inhibition at 1000 µg/mL ([1]; Staphylococcus aureus, 24 h, read-out: Diameter of inhibition zone, S. aureus): 8 mm | % activity index, S. aureus ([1]; relative to ciprofloxacin): 33.3% | GI% SN12C [2]: – (Only GI% ≥ 10 are shown) | GI% HS578T [3]: 28% | GI% SF-268 [4]: 23% | GI% HOP-92 [5]: 12% | GI% OVCAR-5 [6]: 21% | GI% OVCAR-8 [7]: 34% | GI% HL-60(TB) [8]: 43% | Mean GI% [9]: 28% | GI% CAKI-1 [10]: 27% | GI% SK-OV-3 [11]: – (Only GI% ≥ 10 are shown) | GI% TK-10 [12]: – (Only GI% ≥ 10 are shown) | GI% A498 [13]: 10% | GI% MOLT-4 [14]: 56% | GI% NCI-H23 [15]: – (Only GI% ≥ 10 are shown) | GI% RPMI-8226 [16]: 52% | GI% SK-MEL-2 [17]: – (Only GI% ≥ 10 are shown) | GI% RXF 393 [18]: 14% | GI% MALME-3M [19]: 24% | GI% A549/ATCC [20]: 31% | GI% NCI-H460 [21]: 64% | GI% K-562 [22]: 56% | GI% HCT-15 [23]: 66% | GI% HCT-116 [24]: 71% | GI% SF-539 [25]: 32% | GI% MDA-MB-435 [26]: 35% | GI% OVCAR-4 [27]: – (Only GI% ≥ 10 are shown) | GI% UO-31 [28]: – (Only GI% ≥ 10 are shown) | GI% IGROV1 [29]: 36% | GI% HCC-2998 [30]: – (Only GI% ≥ 10 are shown) | GI% M14 [31]: 15% | GI% SNB-75 [32]: 34% | GI% ACHN [33]: 28% | GI% SNB-19 [34]: 32% | GI% PC-3 [35]: 51% | GI% NCI/ADR-RES [36]: 25% | GI% UACC-257 [37]: 21% | zone of inhibition at 1000 µg/mL ([38]; Aspergillus flavus, 24 h, read-out: Diameter of inhibition zone, A. flavus): 10 mm | % activity index, A. flavus ([38]; relative to clotrimazole): 40% | GI% BT-549 [39]: – (Only GI% ≥ 10 are shown) | GI% EKVX [40]: 26% | GI% 786-0 [41]: 22% | GI% COLO 205 [42]: 43% | GI% T-47D [43]: 11% | GI% LOX IMVI [44]: 61% | GI% MDA-MB-231 [45]: 30% | GI% MDA-MB-468 [46]: 33% | GI% NCI-H322M [47]: – (Only GI% ≥ 10 are shown) | GI% OVCAR-3 [48]: – (Only GI% ≥ 10 are shown) | GI% HT29 [49]: 31% | GI% U251 [50]: 46% | GI% SF-295 [51]: 44% | % activity index, C. albicans [52]: – (Values below 25 are of limited value and not shown as they refer either to inactive or non-diffusing compounds) | GI% CCRF-CEM [53]: 37%
